# Patent publication US8642284B1, “Methods for identifying agents that alter NAD-dependent deacetylation activity of a SIR2 protein” (Massachusetts Institute of Technology, priority 1999, dated 2014)
# pIC50: −log10 of the molar value. Entries after “also recorded” stand apart in the source; their conditions may differ.
# Tests used:
# [1] = system: mono-ADP-ribosyltransferases; settings: literature value; read-out: reported IC50 concentration; cited from earlier work
# mSir2α = target: T1, mSir2α (Mus musculus, UniProt Q923E4); assay: ADP-ribosylation assay, sensitivity of mSir2α to poly- and mono-ADP-ribosylation inhibitors (histone H2B, 32P-NAD); format: biochemical; settings: 40 μM
# T1 construct: ADP-ribosylase activity of bacterial recombinant full-length proteins of ySir2p and mSir2α was determined in in vitro assays; 6×His; made in house; host or cells: E. coli BL21 (DE3) pLysS with an extra copy of arginine tRNA gene, pET28a
# T1 sequence (Q923E4 1-737): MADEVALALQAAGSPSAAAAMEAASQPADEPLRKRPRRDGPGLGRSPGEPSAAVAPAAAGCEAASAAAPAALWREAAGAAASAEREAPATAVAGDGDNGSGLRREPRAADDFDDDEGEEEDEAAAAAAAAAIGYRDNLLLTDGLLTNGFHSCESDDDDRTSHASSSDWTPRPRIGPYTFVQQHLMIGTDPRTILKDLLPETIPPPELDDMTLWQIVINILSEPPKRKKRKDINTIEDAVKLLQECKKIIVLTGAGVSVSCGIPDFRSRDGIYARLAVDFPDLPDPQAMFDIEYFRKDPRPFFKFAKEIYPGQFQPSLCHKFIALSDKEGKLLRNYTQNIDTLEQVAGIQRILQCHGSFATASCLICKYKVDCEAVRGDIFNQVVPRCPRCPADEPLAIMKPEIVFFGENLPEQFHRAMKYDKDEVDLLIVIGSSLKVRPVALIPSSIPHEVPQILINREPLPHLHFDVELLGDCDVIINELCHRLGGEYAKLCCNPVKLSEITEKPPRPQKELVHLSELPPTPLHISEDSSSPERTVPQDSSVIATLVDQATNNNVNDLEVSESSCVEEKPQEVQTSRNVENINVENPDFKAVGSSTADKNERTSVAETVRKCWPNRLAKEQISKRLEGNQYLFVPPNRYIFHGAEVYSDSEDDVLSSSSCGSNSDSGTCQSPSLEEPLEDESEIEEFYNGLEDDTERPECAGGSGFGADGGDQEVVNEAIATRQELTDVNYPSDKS
# Method: (§1) The typical reaction was performed in 50 or 100 μl of the buffer containing 5 mM Tris-HCl [pH8.0 or 9.0], 4 mM MgCl2, 0.2 mM DTT, 1 μM cold β-NAD^+ (SIGMA®) and 8 μCi nicotinamide adenine dinucleotide 5′[α-^32P]triphosphate (NAD) as a donor of ADP-ribose (˜1000 Ci/mmol, Amersham Pharmacia Biotech). To check the sensitivity to poly- or mono-ADP-ribosylation inhibitors, 3-aminobenzamide (ICN Pharmaceuticals, CA), benzamide, novobiocin and coumermycin A1 (SIGMA®) were added to the reactions prior to adding Sir2 proteins, respectively. The wild type or mutant recombinant proteins (0.5-1 μg for ySir2p and 10 μg of mSir2α) were added with 4 μg of each histone purchased from Roche Molecular Biochemicals (Indianapolis, Ind.). For the peptide experiments, 5-10 μg of unacetylated or acetylated N-terminal tail peptides (amino acids 1-20) of H3 and H4 purchased from Upstate Biotechnology™ (Lake Placid, N.Y.) were used as substrates of the yeast and mouse Sir2 recombinant proteins.
# To analyze histone modification, 25 μl of 100% trichloroacetic acid (TCA) solution was mixed to the reaction mixture and left on ice for 15 min. The protein precipitates were centrifuged at 4° C. and washed with 5 or 20% TCA solution twice. The pellets were dissolved in 15 μl of Leammli's sample buffer and boiled for 1.5 min. The proteins were electrophoresed in a 10-20% gradient SDS-PAGE gel. The gel was stained with COOMASSIE® Brilliant Blue R-250 (GibcoBRL Life Technologies™, Frederick, Md.) to check equal loading of histones, dried, and exposed to KODAK® X-OMAT film.
# The sensitivity of the ADP-ribosylase activity of mSir2α to poly ADP-ribosylation inhibitors (3-aminobenzamide and benzamide) and mono-ADP-ribosylation inhibitors (novobiocin and coumermycin A1) was evaluated. (FIG. 4F).
# Sir2p [2] = target: T2, Sir2p (Saccharomyces cerevisiae, UniProt P06700); assay: ADP-ribosylation and NAD hydrolysis by recombinant yeast Sir2p (intact histone H3, H3 peptide; SDS-PAGE, TLC); format: biochemical; settings: 200 μM; for inhibition of NAD hydrolysis by Sir2p: H3 peptide, TLC; for inhibition of ADP-ribosylation by Sir2p: intact histone H3 and H3 peptide
# T2 construct: purified recombinant yeast (rSir2p) protein, mouse Sir2 (mSir2α) proteins and vector controls; 6×His; made in house; host or cells: E. coli BL21 (DE3), pET28a
# Method: as §1
# (§2) The typical reaction of Sir2 deacetylase activity was performed in 50 μl of buffer containing 50 mM Tris-HCl [pH 9.0], 4 mM MgCl2, 0.2 mM DTT, variable concentration of cold nicotinamide adenine dinucleotide (NAD) or NAD derivatives (SIGMA®, MO), 5-10 μg of the purified recombinant Sir2 proteins, and 10 μg of the histone H3 N-terminal tail peptide (amino acid 1-20) di-acetylated at positions 9 and 14 (Upstate Biotechnology™, NY). […] To detect the ADP-ribosylation activity, 8 μCi of NAD 5′-[α-^32P]triphosphate (˜1000 Ci/mmol, Amersham Pharmacia Biotech™, NJ) was added to the same reaction containing 1 μM cold NAD. Histone H3 protein (4 μg) (Roche Molecular Biochemicals™, IN) were used for this assay. All reaction mixtures were incubated at room temperature for 1 hr. Trichostatin A and coumermycin A1 (SIGMA™) were prepared in dimethylsulfoxide (DMSO, SIGMA®), and 5 μl of solvent or inhibitor was added to the reactions prior to adding Sir2 proteins.
# Electron-spray mass spectroscopy (also referred to herein as mass spectroscopy) was done on the PE Sciex Model API365™ system. Matrix assisted laser desorption/ionization (MALDI) mass spectroscopy can also be used. The electron-spray mass spectroscopy data were analyzed by the BioMultiView Program™ (version 1.3.1). To detect the ADP-ribosylated intact H3 protein, the pellets were dissolved in 15 μl of Leammli sample buffer, boiled for 1.5 min and electrophoresed in a 10-20% gradient SDS-PAGE gel. The gel was stained with Coomassie Brilliant Blue to check equal loading of histones, dried, and exposed to KODAK® X-OMAT film. […]
# The effects of a known inhibitor of mono-ADP-ribosyltransferases, coumermycin A1 (Banasik, M., et al., Mol. Cell. Biochem. 138: 185-187 (1994)) was evaluated. […]
# Sir2p [3] = target: T2, Sir2p; assay: NAD-dependent deacetylation of di-acetylated H3 peptide by recombinant yeast Sir2p (HPLC); format: biochemical; settings: 200 μM
# Method: as §2
# After the incubation, the products were precipitated at −20° C. overnight by adding 50 μl of distilled water and 25 μl of 100% trichloroacetic acid (TCA) solution. For high pressure liquid chromatography (HPLC), the precipitates were reconstituted in 5% CH3CN and 0.1% trifluoroacetic acid (TFA) and run in the gradient concentration between 0.05% TFA and 0.043% TFA plus 80% CH3CN on Hewlett Packard Model 1100 HPLC system with 214TP52 column (VYDAC, CA). The chromatograms at the absorbance of 210 nm were digitally recorded and analyzed by Hewlett Packard ChemStation™ system (version A.06.03 [509]). Fractions of samples were collected every 1 min by Gilson™ Fraction Collector Model 203. Peptide sequencing was done by the Applied Biosystems PROCISE® 494 HT protein sequencing system. PTH amino acid chromatograms were recorded and analyzed by the ABI Model 610A2.1 data integration/analysis system.
# The experiments employed purified recombinant Sir2p in a reaction with NAD and a peptide of the histone H3 amino-terminal tail (residues 1-20) di-acetylated at lysines 9 and 14. These lysines are hypoacetylated in silenced chromatin and mutations at these positions to glycine greatly reduce silencing in vivo (Thompson, J. S., et al., Nature 369: 245-247 (1994)). The products of a reaction containing 5 μg of recombinant yeast Sir2p (79 pmoles) (FIG. 8a), 10 μg of the H3 peptide (4.2 nmoles) increasing concentrations of NAD were analyzed s by high pressure liquid chromatography (HPLC).
# T2 sequence (P06700 whole entry): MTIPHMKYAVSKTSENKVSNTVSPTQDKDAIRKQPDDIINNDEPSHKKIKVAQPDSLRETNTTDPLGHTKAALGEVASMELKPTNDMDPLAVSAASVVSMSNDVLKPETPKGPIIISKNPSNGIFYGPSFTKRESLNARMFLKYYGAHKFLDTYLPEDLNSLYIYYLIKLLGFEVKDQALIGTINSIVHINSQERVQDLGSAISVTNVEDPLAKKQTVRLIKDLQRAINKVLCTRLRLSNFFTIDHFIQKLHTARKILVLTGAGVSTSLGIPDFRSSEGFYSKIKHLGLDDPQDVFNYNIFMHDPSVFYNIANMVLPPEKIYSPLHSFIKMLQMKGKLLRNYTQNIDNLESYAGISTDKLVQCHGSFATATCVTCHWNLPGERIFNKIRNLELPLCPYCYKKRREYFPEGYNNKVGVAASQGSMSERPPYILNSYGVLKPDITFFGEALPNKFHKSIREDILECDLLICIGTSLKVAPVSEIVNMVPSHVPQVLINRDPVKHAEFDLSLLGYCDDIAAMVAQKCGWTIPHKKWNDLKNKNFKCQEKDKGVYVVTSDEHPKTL
structure (smiles),measurement,setting,value
CO[C@H]1[C@H](OC(=O)c2ccc(C)[nH]2)[C@H](O)[C@@H](Oc2ccc3c(O)c(NC(=O)c4c[nH]c(C(=O)Nc5c(O)c6ccc(O[C@H]7OC(C)(C)[C@@H](OC)[C@H](OC(=O)c8ccc(C)[nH]8)[C@@H]7O)c(C)c6oc5=O)c4C)c(=O)oc3c2C)OC1(C)C [coumermycin A1],pIC50,[1],4.57
same,inhibition of ADP-ribosylation by mSir2α,mSir2α,strongly inhibited
same,inhibition of NAD hydrolysis by Sir2p,Sir2p [2],inhibited
same,inhibition of NAD hydrolysis by Sir2p,Sir2p [2]; listed as Coumermycin A1,inhibit
same,inhibition of ADP-ribosylation by Sir2p,Sir2p [2],inhibited
same,inhibition of ADP-ribosylation by Sir2p,Sir2p [2]; listed as Coumermycin A1,inhibit
same,inhibition of deacetylation of the H3 tail by Sir2p,Sir2p [3],did not inhibit; also recorded: not capable of inhibiting
